Experimental data published in article PMC8231556, “Inhibiting Endothelial Cell Function in Normal and Tumor Angiogenesis Using BMP Type I Receptor Macrocyclic Kinase Inhibitors” (Cancers, 2021).

Experiments:
[1] = test system: Tg (fli:EGFP) zebrafish embryos; assay: Zebrafish embryo toxicity assay; format: in vivo; details: 0.5 µM in egg water, three days
Description: Breeding pairs of the transgenic Casper zebrafish line Tg (fli:EGFP) were put together in a tank, and the next morning, all embryos were collected as previously described. Fertilized eggs that were at the same development stage (around 2.5 h post-fertilization (hpf)) were selected under the microscope. The eggs were randomly divided into different groups, and each group contained about 20 embryos. All the embryos were raised in egg water (60 μg/mL sea salt) and placed in a 28 °C incubator. The compounds dissolved in DMSO were diluted in egg water to a final concentration of 0.5 µM. Equal amounts of DMSO were added to the vehicle control group. Egg water was changed every day, and abnormal embryos were removed. Embryos were recorded until day 3. All experiments were performed in technical triplicates and repeated three times, and representative results are shown. The survival rate was calculated according to the following formula: Survival rate (%) = 100% × (Number of zebrafish that survived at the end)/(Number of zebrafish present at the beginning).

[2] = biological target: T1, SIK2 (Homo sapiens, UniProt Q9H0K1); assay: radiometric kinase profiling (33 PanQinase); format: biochemical; details: read-out: Inhibitory effect (%) SIK2
T1 construct: purchased ProQinase (33PanQinase Activity Assay)
Summary of the method: (§1)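 Enzyme/substrate mixes were incubated with [γ-33P]-ATP and compound (added as a 0.1 μM solution in 10% DMSO) at 30 °C for 60 min, then stopped with H3PO4 and washed with NaCl. 33P incorporation was scintillation-counted, and residual activity (%) was normalized to untreated control and background.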

[3] = biological target: T2, MAP4K4 (Homo sapiens, UniProt O95819); assay: radiometric kinase profiling (33 PanQinase); format: biochemical; details: read-out: Inhibitory effect (%) MAP4K4
T2 construct: purchased ProQinase (33PanQinase Activity Assay)
Summary of the method: as §1

[4] = biological target: T3, BRAF (Homo sapiens, UniProt P15056); assay: radiometric kinase profiling (33 PanQinase); format: biochemical; details: read-out: Inhibitory effect (%) BRAF
T3 construct: purchased Proqinase, Germany
Summary of the method: as §1

[5] = biological target: T4, FGFR3 (Homo sapiens, UniProt P22607); assay: radiometric kinase profiling (33 PanQinase); format: biochemical; details: read-out: Inhibitory effect (%) FGFR3
T4 construct: purchased ProQinase (33PanQinase Activity Assay)
Summary of the method: as §1

[6] = biological target: T5, MAP4K5 (Homo sapiens, UniProt Q9Y4K4); assay: radiometric kinase profiling (33 PanQinase); format: biochemical; details: read-out: Inhibitory effect (%) MAP4K5
T5 construct: purchased ProQinase (33PanQinase Activity Assay)
Summary of the method: as §1

[7] = biological target: T6, FLT3 (Homo sapiens, UniProt P36888); assay: radiometric kinase profiling (33 PanQinase); format: biochemical; details: read-out: Inhibitory effect (%) FLT3
T6 construct: purchased ProQinase (33PanQinase Activity Assay)
Summary of the method: as §1

[8] = test system: constitutively active ALK2 (caALK2); assay: caALK2-induced BRE-Luc reporter activity in C2C12 cells; format: cell-based; details: C2C12 cells, 0.1, 0.5 or 1 μM, 16 hours
Excerpt: To further investigate and validate the selective inhibitory effects of OD16 and OD29 toward BMP9/ALK1 and BMP6/ALK2 signaling, we transfected C2C12 myoblast cells with constitutively active mutant ALK1 and ALK2 (caALK1 and caALK2). These constitutively active receptors signal in the absence of exogenous ligands and allow for a more direct assessment of inhibitory effects that are elicited by kinase receptor inhibitors.
Figure S2. Structural model of (A) LDN−193189, (B) OD16 (grey) overlay with LDN−193189 (green), (C) OD29 (grey) over-lay with LDN−193189 (green) bind to the ALK1 hinge region in the ATP pocket.
Figure S3. RT-qPCR analysis of the ALK1, ALK2 and GAPDH mRNA expression in EA.hy926 and HUVEC cells. Mean Cq and Cq standard error of the mean (SEM) are listed. Representative results from three independent experiments are shown.
Figure S4. OD29 and OD16 are two small molecule BMP type I receptors kinase inhibitors in C2C12 cells. Effects of vehicle control (DMSO), LDN−193189, OD16 or OD29 on BRE transcriptional luciferase reporter activity induced by the ectopic expression of caALK1 (A) or caALK2 (B) in C2C12 cells. Cells were incubated with the inhibitors in three different con-centrations (0.1 μM, 0.5 μM or 1 μM) for 16 hours. Representative results from three biologically independent experiments are shown as mean ± SD. NS, not significant; * p < 0.05, ** p < 0.005; *** p < 0.001. […]

T4 sequence (P22607 23-806): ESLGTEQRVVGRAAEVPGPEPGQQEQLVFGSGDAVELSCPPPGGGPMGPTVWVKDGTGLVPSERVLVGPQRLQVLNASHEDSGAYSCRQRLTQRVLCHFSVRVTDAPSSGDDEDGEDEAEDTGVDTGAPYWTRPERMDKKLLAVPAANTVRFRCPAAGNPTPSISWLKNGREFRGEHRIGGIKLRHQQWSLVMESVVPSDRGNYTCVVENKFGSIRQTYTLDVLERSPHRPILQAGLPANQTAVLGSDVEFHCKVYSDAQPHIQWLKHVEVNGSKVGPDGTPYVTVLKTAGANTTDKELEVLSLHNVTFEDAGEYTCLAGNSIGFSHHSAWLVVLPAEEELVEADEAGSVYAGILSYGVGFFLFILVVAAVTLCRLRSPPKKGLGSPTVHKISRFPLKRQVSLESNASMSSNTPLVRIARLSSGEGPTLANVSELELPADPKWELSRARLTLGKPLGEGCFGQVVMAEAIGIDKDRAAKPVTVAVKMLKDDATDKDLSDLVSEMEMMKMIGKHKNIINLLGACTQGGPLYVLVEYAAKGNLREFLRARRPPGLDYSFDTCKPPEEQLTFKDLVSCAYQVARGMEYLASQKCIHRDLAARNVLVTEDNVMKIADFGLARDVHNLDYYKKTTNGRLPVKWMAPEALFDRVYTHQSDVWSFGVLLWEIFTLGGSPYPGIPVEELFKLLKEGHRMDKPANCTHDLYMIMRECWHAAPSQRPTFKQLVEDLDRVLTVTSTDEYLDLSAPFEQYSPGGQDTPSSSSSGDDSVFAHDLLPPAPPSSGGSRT
T2 sequence (O95819 whole entry): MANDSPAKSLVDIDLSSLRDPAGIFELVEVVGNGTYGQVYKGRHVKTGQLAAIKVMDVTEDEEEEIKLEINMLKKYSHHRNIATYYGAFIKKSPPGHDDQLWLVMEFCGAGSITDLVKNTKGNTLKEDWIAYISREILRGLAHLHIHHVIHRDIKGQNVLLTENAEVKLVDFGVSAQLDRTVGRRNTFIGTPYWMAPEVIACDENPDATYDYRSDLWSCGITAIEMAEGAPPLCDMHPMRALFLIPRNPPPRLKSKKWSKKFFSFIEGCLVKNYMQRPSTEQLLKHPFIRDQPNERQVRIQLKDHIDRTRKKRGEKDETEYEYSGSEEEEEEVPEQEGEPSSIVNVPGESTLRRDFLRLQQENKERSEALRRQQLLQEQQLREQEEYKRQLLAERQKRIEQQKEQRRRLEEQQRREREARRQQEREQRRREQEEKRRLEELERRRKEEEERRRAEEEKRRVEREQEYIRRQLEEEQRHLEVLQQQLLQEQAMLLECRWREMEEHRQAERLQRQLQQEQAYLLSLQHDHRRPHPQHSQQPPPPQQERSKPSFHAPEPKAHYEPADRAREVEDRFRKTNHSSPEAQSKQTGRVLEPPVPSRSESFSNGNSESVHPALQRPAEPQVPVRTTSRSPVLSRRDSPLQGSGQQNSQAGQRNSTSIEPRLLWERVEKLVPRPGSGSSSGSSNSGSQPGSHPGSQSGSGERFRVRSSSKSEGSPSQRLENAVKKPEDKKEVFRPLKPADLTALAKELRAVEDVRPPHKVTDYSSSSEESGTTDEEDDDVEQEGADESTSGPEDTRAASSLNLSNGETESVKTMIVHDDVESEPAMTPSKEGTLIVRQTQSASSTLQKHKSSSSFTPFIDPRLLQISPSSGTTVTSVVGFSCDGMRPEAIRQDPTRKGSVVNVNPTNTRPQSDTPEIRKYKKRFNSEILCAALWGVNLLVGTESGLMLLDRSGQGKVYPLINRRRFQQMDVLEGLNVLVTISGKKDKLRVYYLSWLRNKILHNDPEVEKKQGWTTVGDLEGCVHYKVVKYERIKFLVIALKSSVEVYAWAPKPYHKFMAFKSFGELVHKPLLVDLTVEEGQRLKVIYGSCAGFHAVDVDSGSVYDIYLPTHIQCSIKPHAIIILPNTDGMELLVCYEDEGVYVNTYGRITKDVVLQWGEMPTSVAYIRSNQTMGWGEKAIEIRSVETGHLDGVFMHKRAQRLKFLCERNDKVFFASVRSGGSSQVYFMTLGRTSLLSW
T5 sequence (Q9Y4K4 whole entry): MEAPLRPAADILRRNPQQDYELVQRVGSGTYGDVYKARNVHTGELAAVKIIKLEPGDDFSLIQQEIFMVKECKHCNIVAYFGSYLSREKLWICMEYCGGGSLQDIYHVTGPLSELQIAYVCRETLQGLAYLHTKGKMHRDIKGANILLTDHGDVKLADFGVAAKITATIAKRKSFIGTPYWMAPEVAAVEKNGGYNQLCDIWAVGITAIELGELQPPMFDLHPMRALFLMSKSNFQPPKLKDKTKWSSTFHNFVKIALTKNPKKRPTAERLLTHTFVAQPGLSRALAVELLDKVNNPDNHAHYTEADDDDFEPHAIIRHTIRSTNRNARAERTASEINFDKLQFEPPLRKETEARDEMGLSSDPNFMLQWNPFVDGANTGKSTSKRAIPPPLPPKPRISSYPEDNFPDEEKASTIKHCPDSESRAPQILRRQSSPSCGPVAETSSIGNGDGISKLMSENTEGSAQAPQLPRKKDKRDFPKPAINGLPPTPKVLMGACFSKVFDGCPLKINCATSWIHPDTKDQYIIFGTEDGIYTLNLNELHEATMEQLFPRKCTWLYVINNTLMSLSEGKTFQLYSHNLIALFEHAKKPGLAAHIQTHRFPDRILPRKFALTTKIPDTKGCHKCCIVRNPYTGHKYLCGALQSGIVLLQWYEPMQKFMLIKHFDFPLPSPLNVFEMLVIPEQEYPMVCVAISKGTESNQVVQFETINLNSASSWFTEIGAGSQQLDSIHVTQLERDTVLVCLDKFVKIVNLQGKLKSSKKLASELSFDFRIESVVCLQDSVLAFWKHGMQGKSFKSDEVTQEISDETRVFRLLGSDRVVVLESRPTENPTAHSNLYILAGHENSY
T6 sequence (P36888 27-993): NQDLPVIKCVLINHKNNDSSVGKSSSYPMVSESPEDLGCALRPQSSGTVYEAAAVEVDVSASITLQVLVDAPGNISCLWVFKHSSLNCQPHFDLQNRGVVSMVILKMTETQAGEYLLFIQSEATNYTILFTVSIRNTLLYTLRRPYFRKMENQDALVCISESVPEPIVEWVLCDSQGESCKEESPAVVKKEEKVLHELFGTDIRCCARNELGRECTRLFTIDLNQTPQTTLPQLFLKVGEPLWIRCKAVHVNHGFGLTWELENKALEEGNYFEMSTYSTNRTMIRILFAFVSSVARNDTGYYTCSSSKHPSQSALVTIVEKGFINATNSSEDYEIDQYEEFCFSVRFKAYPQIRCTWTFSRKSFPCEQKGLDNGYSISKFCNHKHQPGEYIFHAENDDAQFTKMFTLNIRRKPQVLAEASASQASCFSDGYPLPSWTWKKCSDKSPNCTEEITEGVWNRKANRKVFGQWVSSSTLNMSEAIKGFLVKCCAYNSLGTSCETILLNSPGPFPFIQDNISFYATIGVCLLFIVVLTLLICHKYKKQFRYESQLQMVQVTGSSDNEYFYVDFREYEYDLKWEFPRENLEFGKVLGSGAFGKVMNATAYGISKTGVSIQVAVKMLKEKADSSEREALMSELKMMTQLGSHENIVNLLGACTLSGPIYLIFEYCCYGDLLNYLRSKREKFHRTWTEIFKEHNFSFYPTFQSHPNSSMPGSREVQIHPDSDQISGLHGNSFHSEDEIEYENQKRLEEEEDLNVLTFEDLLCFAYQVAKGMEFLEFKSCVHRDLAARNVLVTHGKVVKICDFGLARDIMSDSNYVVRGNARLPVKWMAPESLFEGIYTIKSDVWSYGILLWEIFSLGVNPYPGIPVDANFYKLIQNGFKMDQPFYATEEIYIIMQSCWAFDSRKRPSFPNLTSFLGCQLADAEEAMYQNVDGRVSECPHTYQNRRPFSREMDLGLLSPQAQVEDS
T1 sequence (Q9H0K1 whole entry): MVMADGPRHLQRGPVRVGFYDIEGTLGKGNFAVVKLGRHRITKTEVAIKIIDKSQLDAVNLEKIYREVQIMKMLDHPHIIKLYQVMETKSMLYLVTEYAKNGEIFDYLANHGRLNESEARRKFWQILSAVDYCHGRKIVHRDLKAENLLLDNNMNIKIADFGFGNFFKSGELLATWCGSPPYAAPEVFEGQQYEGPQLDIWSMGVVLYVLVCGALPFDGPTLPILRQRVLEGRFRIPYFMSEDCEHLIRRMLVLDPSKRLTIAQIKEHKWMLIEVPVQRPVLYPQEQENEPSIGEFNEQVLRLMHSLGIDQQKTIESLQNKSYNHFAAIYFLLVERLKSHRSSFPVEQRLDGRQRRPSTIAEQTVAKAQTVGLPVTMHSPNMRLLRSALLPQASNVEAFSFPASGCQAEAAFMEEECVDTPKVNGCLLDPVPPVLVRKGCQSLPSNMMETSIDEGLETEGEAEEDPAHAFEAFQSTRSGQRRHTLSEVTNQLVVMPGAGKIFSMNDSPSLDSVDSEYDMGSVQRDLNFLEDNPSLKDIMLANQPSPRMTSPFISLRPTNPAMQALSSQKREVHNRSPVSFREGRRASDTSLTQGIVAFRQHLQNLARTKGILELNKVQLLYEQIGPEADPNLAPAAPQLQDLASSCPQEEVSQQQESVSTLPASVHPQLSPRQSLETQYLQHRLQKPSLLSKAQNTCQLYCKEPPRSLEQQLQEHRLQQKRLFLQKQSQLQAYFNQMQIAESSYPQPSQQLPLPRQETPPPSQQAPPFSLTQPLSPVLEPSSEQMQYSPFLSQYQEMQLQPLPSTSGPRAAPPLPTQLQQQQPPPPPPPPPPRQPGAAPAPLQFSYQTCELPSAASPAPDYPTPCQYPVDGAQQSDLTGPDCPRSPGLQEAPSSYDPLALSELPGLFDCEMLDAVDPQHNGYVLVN

## CN1CCC(=O)NCCNc2ccn3ncc(c3n2)-c2cccc(c2)C1 [OD29]
[1]
  survival rate of the zebrafish: 80–93%
[2]
  inhibition at 0.1 µM: 1.13%
[3]
  inhibition at 0.1 µM: 13.5%
[4]
  inhibition at 0.1 µM: 5.1%
[5]
  inhibition at 0.1 µM: 49.5%
[6]
  inhibition at 0.1 µM: 19.1%
[7]
  inhibition at 0.1 µM: -4.23%

## CN1CCc2cccc(c2)Nc2nccc(n2)N2CCCc3cc(ccc32)C1 [OD16]
[1]
  survival rate of the zebrafish: 80–93%
[2]
  inhibition at 0.1 µM: 43.8%
[3]
  inhibition at 0.1 µM: -0.07%
[4]
  inhibition at 0.1 µM: 5.01%
[5]
  inhibition at 0.1 µM: 14.8%
[6]
  inhibition at 0.1 µM: 14.6%
[7]
  inhibition at 0.1 µM: 4.56%

## c1ccc2c(-c3cnn4cc(-c5ccc(N6CCNCC6)cc5)cnc34)ccnc2c1 [LDN-193189, reference compound]
[8]
  effect on caALK2-induced BRE-Luc reporter activity: in a dose-dependent manner attenuated
